The supplement of paper PMC10307832

Experiments:
Assay in all cases: relative viability (nuclei count vs DMSO), 5 days (fraction); higher = more cells survive
[1] = compound: C[C@]12O[C@H](C[C@]1(O)CO)n1c3ccccc3c3c4c(c5c6ccccc6n2c5c31)CNC4=O [Lestaurtinib] + CC1(C)CCC(c2ccc(Cl)cc2)=C(CN2CCN(c3ccc(C(=O)NS(=O)(=O)c4ccc(N[C@H](CCN5CCOCC5)CSc5ccccc5)c(S(=O)(=O)C(F)(F)F)c4)cc3)CC2)C1 [Navitoclax] (partner 0.5 µM)
In short: (§1)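 Values are medians from duplicate plates. Each reflects relative viability, defined as the nuclei count of treated wells over that of vehicle wells. Lung cancer cell lines in 1536-well plates were pin-tool dosed one day after seeding with one drug alone or with a fixed anchor-drug dose plus five library-drug doses (not always all listed) in √10 steps, then fixed, stained and imaged at 4× after 5 days.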

[2] = compound: C[C@]12O[C@H](C[C@]1(O)CO)n1c3ccccc3c3c4c(c5c6ccccc6n2c5c31)CNC4=O [Lestaurtinib] + C[C@]1(O)C[C@@H](c2nc(-c3ccc4ccc(-c5ccccc5)nc4c3)c3c(N)nccn32)C1 [Linsitinib] (partner 1 µM)
In short: as §1

[3] = compound: C1/C(=C\C2=CC=CS2)/C(=O)/C(=C/C3=CC=CS3)/C1 + CS(=O)(=O)N1CCN(Cc2cc3nc(-c4cccc5[nH]ncc45)nc(N4CCOCC4)c3s2)CC1 [Pictilisib] (partner 1 µM)
In short: as §1

TPCA-1 + Lapatinib = compound: C1=CC(=CC=C1C2=CC(=C(S2)NC(=O)N)C(=O)N)F [TPCA-1] + CS(=O)(=O)CCNCc1ccc(-c2ccc3ncnc(Nc4ccc(OCc5cccc(F)c5)c(Cl)c4)c3c2)o1 [Lapatinib] (partner 2 µM)
In short: as §1

| Cell Line | relative viability ([1]; first compound 0.005 µM) | relative viability ([1]; first compound 0.01581 µM) | relative viability ([1]; first compound 0.05 µM) | relative viability ([1]; first compound 0.1581 µM) | relative viability ([1]; first compound 0.5 µM) | relative viability ([2]; first compound 0.005 µM) | relative viability ([2]; first compound 0.01581 µM) | relative viability ([2]; first compound 0.05 µM) | relative viability ([2]; first compound 0.1581 µM) | relative viability ([2]; first compound 0.5 µM) | relative viability ([3]; first compound 0.2 µM) | relative viability ([3]; first compound 0.6325 µM) | relative viability ([3]; first compound 2 µM) | relative viability ([3]; first compound 6.325 µM) | relative viability ([3]; first compound 20 µM) | relative viability (TPCA-1 + Lapatinib; first compound 0.04 µM) | relative viability (TPCA-1 + Lapatinib; first compound 0.1265 µM) | relative viability (TPCA-1 + Lapatinib; first compound 0.4 µM) | relative viability (TPCA-1 + Lapatinib; first compound 1.265 µM) | relative viability (TPCA-1 + Lapatinib; first compound 4 µM) |
| --- | --- | --- | --- | --- | --- | --- | --- | --- | --- | --- | --- | --- | --- | --- | --- | --- | --- | --- | --- | --- |
| SK-LU-1 | 0.822 | 0.736 | 0.509 | 0.292 | 0.173 | 0.883 | 0.686 | 0.537 | 0.505 | 0.261 | 0.583 | 0.709 | 0.649 | 0.56 | 0.665 | 0.799 | 0.841 | 0.888 | 0.698 | 0.569 |
| LOU-NH91 | 0.698 | 0.583 | 0.438 | 0.371 | 0.272 | 0.912 | 0.887 | 0.773 | 0.603 | 0.45 | 0.522 | 0.502 | 0.508 | 0.524 | 0.481 | 0.796 | 0.717 | 0.753 | 0.779 | 0.596 |
| LXF-289 | 0.93 | 0.986 | 0.742 | 0.707 | 0.161 | 0.967 | 0.964 | 0.741 | 0.802 | 0.197 | 0.814 | 0.772 | 0.821 | 0.699 | 0.797 | 0.914 | 0.927 | 0.807 | 0.831 | 0.726 |
| NCI-H1299 | 1.02 | 1.06 | 0.946 | 0.845 | 0.489 | 0.985 | 1.02 | 0.688 | 0.504 | 0.499 | 0.79 | 0.863 | 0.806 | 0.758 | 0.799 | 0.962 | 0.979 | 0.95 | 0.963 | 0.949 |
| HARA | 1.15 | 1.18 | 1.21 | 1.07 | 0.196 | 1.02 | 1.09 | 0.648 | 0.453 | 0.198 | 0.452 | 0.448 | 0.508 | 0.504 | 0.445 | 0.744 | 0.988 | 0.791 | 0.722 | 0.691 |
| LU99A | 0.707 | 0.72 | 0.373 | 0.378 | 0.211 | 0.46 | 0.443 | 0.3 | 0.284 | 0.21 | 0.345 | 0.403 | 0.303 | 0.276 | 0.353 | 1.02 | 0.872 | 1.11 | 0.81 | 0.426 |
| 201T | 1.21 | 1.22 | 1.29 | 1.28 | 1.18 | 1.03 | 0.987 | 0.992 | 0.926 | 0.937 | 0.695 | 0.688 | 0.697 | 0.607 | 0.664 | 1.05 | 1.02 | 1.01 | 1.01 | 1.05 |
| HCC-827 | 1.07 | 1.01 | 0.98 | 0.847 | 0.604 | 0.913 | 0.996 | 0.87 | 0.857 | 0.762 | 1.12 | 1 | 1.1 | 0.933 | 1.01 | 0.193 | 0.198 | 0.188 | 0.166 | 0.132 |
